The results in this text go back to article PMC3257585 (Journal of Medicinal Chemistry, 2011).

Bounds are passed on as bounds.

One assay deals with PIM1 (Homo sapiens, UniProt P11309). Nature of the assay: Thermal stability shift assay. It counts as binding. Particulars: Tm shift assay.
A further assay addresses cKIT (Homo sapiens, UniProt P10721). Nature of the assay: In vitro kinase selectivity panel. It counts as biochemical.
A further assay addresses PDGFRa (Homo sapiens, UniProt P16234). Description: In vitro kinase selectivity panel. It counts as biochemical.
The target of a further assay is T1, FLT3 (Homo sapiens, UniProt P36888).
T1 sequence (P36888 27-993): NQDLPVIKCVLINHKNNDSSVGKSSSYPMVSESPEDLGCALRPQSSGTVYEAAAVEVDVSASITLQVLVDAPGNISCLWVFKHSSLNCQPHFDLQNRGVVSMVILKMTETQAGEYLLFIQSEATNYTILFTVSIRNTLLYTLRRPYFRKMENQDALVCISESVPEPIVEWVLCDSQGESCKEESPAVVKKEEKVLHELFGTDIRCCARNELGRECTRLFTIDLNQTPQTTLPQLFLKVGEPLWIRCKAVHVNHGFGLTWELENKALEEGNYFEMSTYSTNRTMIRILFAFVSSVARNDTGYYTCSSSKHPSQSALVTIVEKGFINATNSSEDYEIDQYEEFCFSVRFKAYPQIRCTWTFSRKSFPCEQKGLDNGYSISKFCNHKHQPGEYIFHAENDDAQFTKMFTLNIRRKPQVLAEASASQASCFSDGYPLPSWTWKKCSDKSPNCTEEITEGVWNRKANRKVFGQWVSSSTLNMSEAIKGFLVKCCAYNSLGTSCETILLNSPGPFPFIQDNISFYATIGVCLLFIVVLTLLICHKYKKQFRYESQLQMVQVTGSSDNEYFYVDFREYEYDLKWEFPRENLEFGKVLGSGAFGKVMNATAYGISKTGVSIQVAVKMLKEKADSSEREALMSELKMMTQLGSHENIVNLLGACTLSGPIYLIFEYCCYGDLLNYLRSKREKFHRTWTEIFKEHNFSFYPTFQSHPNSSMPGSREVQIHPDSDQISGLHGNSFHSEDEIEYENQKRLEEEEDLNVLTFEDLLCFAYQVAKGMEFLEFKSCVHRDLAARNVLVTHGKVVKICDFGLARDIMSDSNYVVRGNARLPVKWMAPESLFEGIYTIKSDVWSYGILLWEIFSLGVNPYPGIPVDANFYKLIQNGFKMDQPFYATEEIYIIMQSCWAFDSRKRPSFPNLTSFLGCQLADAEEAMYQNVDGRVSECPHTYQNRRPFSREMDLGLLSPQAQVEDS
Description: In vitro kinase selectivity panel. It counts as biochemical.

The next assay has as its target BTKv2 (Homo sapiens, UniProt Q06187). Description: In vitro kinase selectivity panel. The format is biochemical.
For another assay, the target named is CaMK2 (Homo sapiens, UniProt Q13555). Description: In vitro kinase selectivity panel. The format is biochemical.
Chain of CaMK2 (Q13555 whole entry): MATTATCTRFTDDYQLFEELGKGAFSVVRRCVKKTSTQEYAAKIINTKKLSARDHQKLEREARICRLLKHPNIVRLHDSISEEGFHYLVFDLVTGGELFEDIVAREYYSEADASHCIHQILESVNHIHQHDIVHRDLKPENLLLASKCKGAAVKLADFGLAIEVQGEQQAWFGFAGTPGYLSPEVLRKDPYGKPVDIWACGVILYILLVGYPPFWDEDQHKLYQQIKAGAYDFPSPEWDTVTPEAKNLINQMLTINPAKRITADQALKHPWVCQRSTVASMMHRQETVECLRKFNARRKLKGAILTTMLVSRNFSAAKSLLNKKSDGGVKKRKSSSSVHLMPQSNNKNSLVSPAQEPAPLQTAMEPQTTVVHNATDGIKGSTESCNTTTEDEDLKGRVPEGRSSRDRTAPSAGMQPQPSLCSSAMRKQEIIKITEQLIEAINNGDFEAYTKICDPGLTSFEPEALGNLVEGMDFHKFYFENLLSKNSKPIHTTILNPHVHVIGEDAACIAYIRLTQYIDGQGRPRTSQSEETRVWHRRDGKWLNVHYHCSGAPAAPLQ
A further assay addresses HER4 (Homo sapiens, UniProt Q15303). Description: In vitro kinase selectivity panel. The format is biochemical.
For a further assay, the target named is T2, PDK1v2 (Homo sapiens, UniProt O15530).
T2 sequence (O15530 1-556): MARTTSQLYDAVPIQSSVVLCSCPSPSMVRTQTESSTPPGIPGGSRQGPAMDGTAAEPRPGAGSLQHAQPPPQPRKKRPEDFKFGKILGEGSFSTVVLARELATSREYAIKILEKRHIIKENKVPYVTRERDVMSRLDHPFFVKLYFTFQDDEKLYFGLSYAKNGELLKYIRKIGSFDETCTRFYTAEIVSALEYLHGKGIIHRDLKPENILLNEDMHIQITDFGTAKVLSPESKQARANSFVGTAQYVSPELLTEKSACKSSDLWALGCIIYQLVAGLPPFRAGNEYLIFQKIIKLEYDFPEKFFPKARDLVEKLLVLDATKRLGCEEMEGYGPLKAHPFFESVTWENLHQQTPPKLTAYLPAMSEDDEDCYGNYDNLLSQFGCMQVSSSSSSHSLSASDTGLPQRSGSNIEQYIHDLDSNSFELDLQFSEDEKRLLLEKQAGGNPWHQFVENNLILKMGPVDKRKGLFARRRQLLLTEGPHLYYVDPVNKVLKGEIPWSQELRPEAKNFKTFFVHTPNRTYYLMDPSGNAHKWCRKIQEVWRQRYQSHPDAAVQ
Nature of the assay: In vitro kinase selectivity panel. It counts as biochemical.

Another assay addresses PKA (Homo sapiens, UniProt P17612). Description: In vitro kinase selectivity panel. The format is biochemical.
The subject of assay [1] is phosphorylation of 4E-BP1. Nature of the assay: Western blot of 4E-BP1 phosphorylation in MV4. The format is cell-based, human. Particulars: MV4;11 cells, 0–10 μM. For orientation: A western blot detects proteins with antibodies after separation by electrophoresis.

Chain of PIM1 (P11309 whole entry): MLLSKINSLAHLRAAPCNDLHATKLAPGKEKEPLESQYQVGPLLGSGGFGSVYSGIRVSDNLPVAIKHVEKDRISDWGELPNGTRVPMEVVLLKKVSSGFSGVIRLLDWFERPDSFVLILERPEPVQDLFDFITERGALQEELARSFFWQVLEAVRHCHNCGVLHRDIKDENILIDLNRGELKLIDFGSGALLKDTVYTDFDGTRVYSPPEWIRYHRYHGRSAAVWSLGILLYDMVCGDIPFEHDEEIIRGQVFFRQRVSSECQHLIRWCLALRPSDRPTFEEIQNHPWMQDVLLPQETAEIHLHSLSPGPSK
Chain of PDGFRa (P16234 24-1089): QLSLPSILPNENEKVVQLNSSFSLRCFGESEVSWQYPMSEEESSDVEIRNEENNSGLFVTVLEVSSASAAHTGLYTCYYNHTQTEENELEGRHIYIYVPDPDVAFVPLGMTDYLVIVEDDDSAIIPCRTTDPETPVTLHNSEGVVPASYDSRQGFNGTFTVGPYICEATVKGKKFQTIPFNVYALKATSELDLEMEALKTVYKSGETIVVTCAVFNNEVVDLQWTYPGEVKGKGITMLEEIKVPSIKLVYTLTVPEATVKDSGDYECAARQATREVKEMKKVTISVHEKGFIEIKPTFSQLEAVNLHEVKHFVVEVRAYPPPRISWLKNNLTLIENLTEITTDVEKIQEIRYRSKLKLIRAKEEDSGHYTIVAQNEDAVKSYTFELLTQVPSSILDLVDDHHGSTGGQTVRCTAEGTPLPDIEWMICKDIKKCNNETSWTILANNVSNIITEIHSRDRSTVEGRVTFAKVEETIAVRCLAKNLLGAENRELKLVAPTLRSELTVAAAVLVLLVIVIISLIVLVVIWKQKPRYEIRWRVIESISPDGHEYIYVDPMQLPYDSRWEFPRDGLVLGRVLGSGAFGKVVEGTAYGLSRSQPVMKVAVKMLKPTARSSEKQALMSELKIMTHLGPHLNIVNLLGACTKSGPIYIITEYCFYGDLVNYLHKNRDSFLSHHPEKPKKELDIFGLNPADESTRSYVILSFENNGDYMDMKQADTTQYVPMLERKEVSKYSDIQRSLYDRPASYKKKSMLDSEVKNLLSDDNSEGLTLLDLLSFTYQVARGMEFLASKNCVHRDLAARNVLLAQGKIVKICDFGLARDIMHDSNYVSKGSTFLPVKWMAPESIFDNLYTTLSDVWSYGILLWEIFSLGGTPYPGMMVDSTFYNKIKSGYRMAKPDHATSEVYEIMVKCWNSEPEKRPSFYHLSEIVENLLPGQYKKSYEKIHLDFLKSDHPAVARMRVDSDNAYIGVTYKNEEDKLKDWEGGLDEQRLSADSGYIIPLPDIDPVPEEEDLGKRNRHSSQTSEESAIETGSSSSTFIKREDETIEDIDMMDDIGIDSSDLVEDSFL
Chain of cKIT (P10721 26-976): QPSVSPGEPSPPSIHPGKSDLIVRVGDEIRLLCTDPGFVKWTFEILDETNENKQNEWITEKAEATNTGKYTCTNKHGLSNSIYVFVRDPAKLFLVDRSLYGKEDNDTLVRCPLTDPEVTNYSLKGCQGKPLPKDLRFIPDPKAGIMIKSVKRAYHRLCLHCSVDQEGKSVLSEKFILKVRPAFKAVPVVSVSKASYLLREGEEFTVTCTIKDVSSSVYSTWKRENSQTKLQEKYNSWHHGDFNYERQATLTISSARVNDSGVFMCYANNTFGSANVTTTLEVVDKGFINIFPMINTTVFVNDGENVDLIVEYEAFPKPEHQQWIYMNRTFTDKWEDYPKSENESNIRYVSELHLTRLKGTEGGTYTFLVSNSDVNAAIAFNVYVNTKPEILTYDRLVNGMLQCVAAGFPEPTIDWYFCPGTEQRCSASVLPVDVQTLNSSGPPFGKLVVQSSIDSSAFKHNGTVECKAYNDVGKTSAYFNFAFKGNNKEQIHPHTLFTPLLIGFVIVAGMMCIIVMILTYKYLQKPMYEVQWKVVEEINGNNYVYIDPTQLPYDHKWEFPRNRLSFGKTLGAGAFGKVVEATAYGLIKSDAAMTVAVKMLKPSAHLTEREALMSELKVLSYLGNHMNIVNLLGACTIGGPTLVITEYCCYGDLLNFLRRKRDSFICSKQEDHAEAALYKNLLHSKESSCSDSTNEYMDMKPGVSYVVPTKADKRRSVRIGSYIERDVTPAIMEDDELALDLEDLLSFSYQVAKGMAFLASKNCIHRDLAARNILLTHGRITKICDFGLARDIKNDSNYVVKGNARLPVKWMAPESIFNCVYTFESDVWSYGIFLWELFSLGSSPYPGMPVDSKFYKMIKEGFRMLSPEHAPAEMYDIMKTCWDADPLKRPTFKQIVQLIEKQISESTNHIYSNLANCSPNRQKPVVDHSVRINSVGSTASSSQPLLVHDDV
Chain of HER4 (Q15303 26-1308): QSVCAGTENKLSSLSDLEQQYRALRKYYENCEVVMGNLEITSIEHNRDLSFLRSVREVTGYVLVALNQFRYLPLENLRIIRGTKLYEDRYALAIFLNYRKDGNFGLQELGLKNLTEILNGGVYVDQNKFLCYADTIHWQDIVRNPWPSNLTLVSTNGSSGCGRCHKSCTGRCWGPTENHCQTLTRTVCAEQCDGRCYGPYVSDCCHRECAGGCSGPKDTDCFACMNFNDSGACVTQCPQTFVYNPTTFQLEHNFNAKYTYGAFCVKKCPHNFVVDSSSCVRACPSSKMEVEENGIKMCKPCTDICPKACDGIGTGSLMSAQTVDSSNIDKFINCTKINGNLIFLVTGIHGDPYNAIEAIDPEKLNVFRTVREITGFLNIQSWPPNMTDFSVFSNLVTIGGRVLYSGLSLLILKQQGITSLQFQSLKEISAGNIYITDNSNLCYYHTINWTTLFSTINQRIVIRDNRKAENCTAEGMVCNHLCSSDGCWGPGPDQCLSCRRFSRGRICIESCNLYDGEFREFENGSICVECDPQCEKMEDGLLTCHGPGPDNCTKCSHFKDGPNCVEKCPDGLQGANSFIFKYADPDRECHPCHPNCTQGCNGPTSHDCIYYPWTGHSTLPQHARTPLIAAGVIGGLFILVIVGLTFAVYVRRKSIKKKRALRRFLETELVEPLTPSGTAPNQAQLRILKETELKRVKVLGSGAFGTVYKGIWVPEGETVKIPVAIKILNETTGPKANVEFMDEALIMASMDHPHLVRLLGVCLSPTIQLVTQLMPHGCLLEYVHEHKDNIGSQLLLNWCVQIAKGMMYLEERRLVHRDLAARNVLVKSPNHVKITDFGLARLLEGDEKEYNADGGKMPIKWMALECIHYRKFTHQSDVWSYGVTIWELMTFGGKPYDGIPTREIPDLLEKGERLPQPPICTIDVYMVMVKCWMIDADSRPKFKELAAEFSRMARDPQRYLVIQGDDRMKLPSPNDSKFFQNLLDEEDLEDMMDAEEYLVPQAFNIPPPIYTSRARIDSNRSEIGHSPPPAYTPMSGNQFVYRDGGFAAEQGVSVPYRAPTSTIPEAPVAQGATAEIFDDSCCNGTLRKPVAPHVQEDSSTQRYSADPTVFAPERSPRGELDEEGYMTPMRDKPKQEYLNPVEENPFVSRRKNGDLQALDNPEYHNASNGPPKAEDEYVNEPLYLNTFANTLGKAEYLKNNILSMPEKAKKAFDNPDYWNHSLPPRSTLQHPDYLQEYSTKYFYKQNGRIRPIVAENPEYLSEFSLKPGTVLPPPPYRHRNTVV
Chain of BTKv2 (Q06187 whole entry): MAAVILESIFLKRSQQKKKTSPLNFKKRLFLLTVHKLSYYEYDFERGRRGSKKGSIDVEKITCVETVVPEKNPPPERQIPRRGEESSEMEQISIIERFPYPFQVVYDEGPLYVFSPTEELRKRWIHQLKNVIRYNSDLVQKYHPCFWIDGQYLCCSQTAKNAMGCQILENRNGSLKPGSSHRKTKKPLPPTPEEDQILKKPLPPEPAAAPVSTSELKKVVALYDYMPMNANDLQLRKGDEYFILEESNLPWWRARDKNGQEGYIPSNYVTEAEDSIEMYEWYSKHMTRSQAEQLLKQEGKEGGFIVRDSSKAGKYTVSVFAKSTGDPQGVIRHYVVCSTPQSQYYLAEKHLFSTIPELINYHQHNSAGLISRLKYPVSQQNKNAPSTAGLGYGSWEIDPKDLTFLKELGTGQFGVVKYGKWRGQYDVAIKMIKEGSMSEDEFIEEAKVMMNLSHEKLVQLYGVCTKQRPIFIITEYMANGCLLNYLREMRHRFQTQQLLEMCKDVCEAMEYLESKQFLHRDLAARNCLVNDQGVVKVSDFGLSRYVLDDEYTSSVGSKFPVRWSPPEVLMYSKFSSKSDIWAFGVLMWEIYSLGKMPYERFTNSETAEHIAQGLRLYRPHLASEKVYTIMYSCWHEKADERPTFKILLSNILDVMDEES

Turning to `CN1CCC2(CC1)NC(=O)c1c(c3ccc(Cl)c(Cl)c3n1C)C2C#N` (racemic) [Compound 17, (4′RS)-7′,8′-Dichloro-1,9′-dimethyl-1′-oxo-1′,2′,4′,9′-tetrahydrospiro[piperidine-4,3′-pyrido[3,4-b]indole]-4′-carbonitrile], the “activity against PIM1 (in words)” value at PIM1 is on record as “highly potent inhibitors”. In addition, the “activity against KIT (in words)” value on cKIT is “did not exhibit any significant activity”. Also, the “activity against PDGFRα (in words)” value at PDGFRa is on record as “did not exhibit any significant activity”. Besides, on FLT3, the “activity against FLT3 (in words)” value is recorded as “did not exhibit any significant activity”.
On to `CCN1CCC2(CC1)NC(=O)c1c(c3ccc(Cl)c(Cl)c3n1C)C2C#N` (racemic) [Compound 18, (4′RS)-7′,8′-Dichloro-1-ethyl-9′-methyl-1′-oxo-1′,2′,4′,9′-tetrahydrospiro[piperidine-4,3′-pyrido[3,4-b]indole]-4′-carbonitrile], for which, on PIM1, the “activity against PIM1 (in words)” value is “highly potent inhibitors”.
In the case of `Cn1c2c(c3ccc(Cl)c(Cl)c31)C(C#N)C1(CCN(C(=O)OC(C)(C)C)CC1)NC2=O` (racemic) [Compound 19, (4′RS)-tert-Butyl 7′,8′-Dichloro-4′-cyano-9′-methyl-1′-oxo-1′,2′,4′,9′-tetrahydrospiro[piperidine-4,3′-pyrido[3,4-b]indole]-1-carboxylate], the “activity against PIM1 (in words)” value at PIM1 was “did not exhibit any inhibitory potency”.
With `Cn1c2c(c3ccc(Cl)c(Cl)c31)C(C#N)C1(CCNCC1)NC2=O` (racemic) [Compound 20, (4′RS)-7′,8′-Dichloro-9′-methyl-1′-oxo-1′,2′,4′,9′-tetrahydrospiro[piperidine-4,3′-pyrido[3,4-b]indole]-4′-carbonitrile], at PIM1, the “activity against PIM1 (in words)” value is on record as “highly potent inhibitors”. Also, the IC50 (as a rule, the concentration needed to halve the response being measured) against BTKv2 was above 10 µM; against CaMK2, below 100 nM; at HER4, above 10 µM; at PDK1v2 it was above 10 µM; against PKA, below 100 nM. Besides, on cKIT, the “activity against KIT (in words)” value is reported as “did not exhibit any significant activity”. For the same molecule, the “activity against PDGFRα (in words)” value on PDGFRa is given as “did not exhibit any significant activity”. Moreover, on FLT3, the “activity against FLT3 (in words)” value is “did not exhibit any significant activity”. Moreover, in assay [1], the “phosphorylation of 4E-BP1” value was “dose-dependent decrease”.
“(4RS)-N-[(7,8-Dichloro-3,3-dimethyl-1-oxo-2,3,4,9-tetrahydro-1H-pyrido[3,4-b]indol-4-yl)methyl]acetamide [Compound 24]”: the “activity against PIM1 (in words)” value at PIM1 was “complete loss of activity”.
